Reference: patent US20220096431A1, “PHARMACEUTICAL COMPOSITION AND METHOD FOR PREVENTING, TREATING AND DIAGNOSING A NEURODEGENERATIVE DISEASE” (BUDDHIST TZU CHI MEDICAL FOUNDATION, priority 2020, published 2022)

Assays:
Notch signaling = conditions: background; cited from earlier work
3xTg AD mice = assay: Morris water maze test in AD-3xTg mice; format: in vivo
Procedure: Red dot, starting point of the swim; green dot, end point of the swim.
N=4 for wild-type and 10 mg/kg donepezil-treated 3xTg mice. N=6 for vehicle-treated 3xTg mice, 60 mg/kg n-BP-treated 3xTg mice, and 120 mg/kg n-BP-treated 3xTg mice. *p-value<0.05, **p-value<0.01 (Student's t-test). […] After 4-12 months, the B6 (C57/BL6) control mice have no AP accumulation (Green color).
The mice behavioral experiment using Morris water maze is a classical test to detect short-term memory and complex memory. Through its behavior, it can be determined whether there is a difference in memory after drug treatment. […] Two sessions were conducted on Day 1 as follows: (1) mice were placed in the swimming pool to adapt to the environment for a training duration of 120 seconds; (2) a hidden rest platform was added to the pool at a precise location in the northwest corner of the pool (blue diamond in the east; red circle in the west and yellow triangle in the south as shown in FIG. 7G) and the mice were allowed for to swim in the pool for a duration of another 120 seconds. If the rescue platform was not found by the mouse within the allocated time, the mouse was guided to the platform. The test for finding the rescue platform is carried out for the next four consecutive days, with each session lasting 90 seconds. The result is collected and analyzed.

SH-SY5Y = assay: Aβ1-42 poisoning experiment in SH-SY5Y cells (MTT); format: cell-based, human; conditions: n-butylidenephthalide 100 μM, vitamin C 200 μM, alone or in combination, Aβ1-42 1 μM
Description: Then, the cell viability is detected by a cell survival test using (3-(4,5-dimethylthiazol-2-yl)-2,5-diphenyltetrazolium bromide (MTT) assay.

lnc-CYP3A43-2 = assay: Biotin-based pulldown assay with real-time PCR; conditions: real-time PCR of miRNA; n=3
Description: Then, a biotin-based pulldown assay was used to validate this interaction. The result shown in FIG. 6H indicates the lnc-CYP3A43-2 can affect target miR-29b-2-5p (41.84-fold).

3′-UTR of PSEN-1 = assay: Dual luciferase assay with PSEN-1 3′-UTR reporter constructs in SH-SY5Y cells; format: cell-based, human; conditions: 50 nM miR-29b-2-5p
Procedure: The relative ratios of Renilla and firefly luciferase activity were measured.
The specificity and inhibitory effect of miRNA-29b-2-5p on the specific sequence of PSEN-1 can be confirmed by a dual luciferase assay. The dual luciferase assay includes two luminescence proteins, namely firefly luciferase (molecular weight 61 kDa, emission wavelength at about 560 nm) isolated from firefly (Photlnus pyralls) and Renilla luciferase (molecular weight 31 kDa, emission wavelength at about 480 nm) isolated from Renilla reniformis, which are combined with the sequence to be analyzed and cloned into a vector for amplification. After transfection into cells, the cells emit luminescence. To investigate the influence of these complementary sites, neuroblastoma cell line (SH-SY5Y) as shown in FIG. 2D is used as the cell model and 2 constructs containing continuous complementary (wild type) and noncomplementary (mutant) target site were designed as shown in FIG. 2E. The constructs were then transfected with a miR-29b-2-5p mimic into the SH-SY5Y cell line. The present disclosure uses three different PSEN-1 sequences for dual luciferase analysis, including the wild-type 3′-UTR sequence of PSEN-1, the site 2 mutant having a mutation at site 2 sequence of PSEN-1 that is predicted to be complementary to miRNA-29b-2-5p and double mutant in which both the site 1 and site 2 sequences, which are the sequences of PSEN-1 predicted to be complementary to miRNA-29b-2-5p, are mutated.

[1] = system: PSEN-1, PSEN-2, Aβ1-42 and NICD in C6-C99 cells; assay: Western blotting of amyloid-related proteins in C6-C99 cells; format: cell-based; conditions: C6-C99 cells transfected with miR-29b-2-5p mimic; compared with control cells; n=3
Description: FIG. 3B to FIG. 3E are the quantitative results of the Western blotting analysis of PSEN-1, PSEN-2, β-amyloid 1-42 (Aβ1-42) and NICD in FIG. 3A, respectively (p*<0.05, p**<0.01). The C6-C99 cells used in FIGS. 3A to 3E are glioma cells having a fragment of human amyloid precursor protein (APP). This fragment is a peptide fragment with 99 amino acids (APP-C99), which can express large amounts of PSEN-1, PSEN-2, and Aβ 1-42 after activation by cumate.
Western blotting is used to detect the expression levels of amyloid-related proteins, including PSEN-1, PSEN-2, and β-amyloid 1-42 (Aβ1-42), while simultaneously detect the expression level of Notch protein (Notch intracellular domain, NICD), which is an indicator of drug safety. If the Notch protein is not affected, then drug safety is indicated.
APP-C99 was transfected into C6 cells with the C99 peptide through cumate-inducible system activation.

[2] = system: PSEN-1, PSEN-2, Aβ1-42 and NICD in C6-C99 cells; assay: as above; format: cell-based; conditions: C6-C99 cells transfected with miR-29b-2-5p mimic, compared with control cells, n=3

In the case of CC(C)[C@H](O)C(=O)N[C@@H](C)C(=O)N[C@@H]1C(=O)N(C)CCc2ccccc21 [LY450139], the Adverse reactions (Notch signaling) is given as “causes skin tumors and differentiation of intestinal epithelial cell” and the “Effect on Notch signaling” value (Notch signaling) is given as “damages Notch signaling”.
With COc1cc2c(cc1OC)C(=O)C(CC1CCN(Cc3ccccc3)CC1)C2 (stereo not shown) [donepezil, reference compound] the “Locating and arriving at the resting platform” value (3xTg AD mice; 120 mg/kg n-BP, donepezil as positive control) was “able to quickly locate and arrive at the resting platform” and the “Time required to find the platform” value (3xTg AD mice; Day 5, 120 mg/kg n-BP, 10 mg donepezil/kg, vs untreated 3xTg mice) was “significantly lower”.
In the case of O=C1O[C@H]([C@@H](O)CO)C(O)=C1O [vitamin C, ascorbic acid, reference compound], the “Cell survival, protection against Aβ1-42 damage” value (SH-SY5Y) is reported as “has an effect on increasing cell survival”.
In the case of “miR-29b-2-5p: mature miRNA-29b-2-5p nucleic acid, sequence cugguuucacaugguggcuuag (SEQ ID NO.: 1); used as mimic (CUGGUUUCACAUGGUGGCUUAG; listed as RNA, chemistry not given here; listed as Homo sapiens)”, the “miR-29b-2-5p in lnc-CYP3A43-2 pulldown” value (lnc-CYP3A43-2) is reported as 41.84 fold, the “Luminescence of reporter, PSEN-1 double site mutant” value (3′-UTR of PSEN-1) is reported as “abolished the inhibitory effect” and the “Luminescence of reporter, PSEN-1 site 2 mutant” value (3′-UTR of PSEN-1) is reported as “abolished the inhibitory effect”. For the same molecule, the “Luminescence of reporter, wild type 3′-UTR of PSEN-1” value (3′-UTR of PSEN-1) was “decreased the expression of the reporter”, the “Luminescence of reporter, PSEN-1 double site mutant” value (3′-UTR of PSEN-1; listed as miRNA-29b-5p) was “no significant difference in the luminescence emitted” and the “Luminescence of reporter, PSEN-1 site 2 mutant” value (3′-UTR of PSEN-1; listed as miRNA-29b-5p) was “no significant difference in the luminescence”. For the same molecule, the “Luminescence of reporter, wild type 3′-UTR of PSEN-1” value (3′-UTR of PSEN-1; listed as miRNA-29b-5p) was “the luminescence emitted was inhibited”, the PSEN1 expression [1] was 100%±19.31% and the Aβ1-42 expression [2] was 48.75%±26.77%. The Aβ1-42 expression ([2]; listed as miRNA-29b-2-5p) was “decreased” and the PSEN1 expression ([2]; listed as miRNA-29b-2-5p) was “decreased”.
